Results as given in PubChem BioAssay (NCI).
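Briefly, cells in 96-well plates were exposed to five compound concentrations for 48 h, and endpoints were estimated by linear interpolation. GI50 marks 50% less growth. The concentration for full growth arrest is given as TGI.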

How the values were obtained:
Test in all cases: NCI tumour cell line growth inhibition, 48 h
MCF7 breast = test system: MCF7 breast
MDA-MB-435 = test system: MDA-MB-435
COLO 205 colon = test system: COLO 205 colon
SK-MEL-2 melanoma = test system: SK-MEL-2 melanoma
NCI/ADR-RES ovarian = test system: NCI/ADR-RES ovarian
HT29 colon = test system: HT29 colon
SN12C renal = test system: SN12C renal
SK-MEL-5 melanoma = test system: SK-MEL-5 melanoma
T-47D breast = test system: T-47D breast
ACHN renal = test system: ACHN renal
M14 melanoma = test system: M14 melanoma
LOX IMVI melanoma = test system: LOX IMVI melanoma
UACC-257 melanoma = test system: UACC-257 melanoma
A498 renal = test system: A498 renal
HOP-92 NSCLC = test system: HOP-92 NSCLC
SK-MEL-28 melanoma = test system: SK-MEL-28 melanoma
SW-620 colon = test system: SW-620 colon
UACC-62 melanoma = test system: UACC-62 melanoma
PC-3 prostate = test system: PC-3 prostate
NCI-H23 lung = test system: NCI-H23 lung
SNB-19 CNS = test system: SNB-19 CNS
SNB-75 CNS = test system: SNB-75 CNS
SF-295 CNS = test system: SF-295 CNS
A549 NSCLC = test system: A549 NSCLC
EKVX NSCLC = test system: EKVX NSCLC
OVCAR-3 ovarian = test system: OVCAR-3 ovarian
HCC-2998 colon = test system: HCC-2998 colon
BT-549 breast = test system: BT-549 breast
MALME-3M melanoma = test system: MALME-3M melanoma
786-0 renal = test system: 786-0 renal
DU-145 prostate = test system: DU-145 prostate
OVCAR-8 ovarian = test system: OVCAR-8 ovarian
RXF 393 renal = test system: RXF 393 renal
CAKI-1 renal = test system: CAKI-1 renal
HCT-15 colon = test system: HCT-15 colon
TK-10 renal = test system: TK-10 renal
UO-31 renal = test system: UO-31 renal
NCI-H522 lung = test system: NCI-H522 lung
SF-268 CNS = test system: SF-268 CNS
NCI-H226 lung = test system: NCI-H226 lung
IGROV1 ovarian = test system: IGROV1 ovarian
SF-539 CNS = test system: SF-539 CNS
HCT-116 colon = test system: HCT-116 colon
KM12 colon = test system: KM12 colon
NCI-H460 lung = test system: NCI-H460 lung
MDA-MB-231 breast = test system: MDA-MB-231 breast
RPMI-8226 leukemia = test system: RPMI-8226 leukemia
SK-OV-3 ovarian = test system: SK-OV-3 ovarian
OVCAR-5 ovarian = test system: OVCAR-5 ovarian
U251 CNS = test system: U251 CNS
OVCAR-4 ovarian = test system: OVCAR-4 ovarian
K-562 leukemia = test system: K-562 leukemia
CCRF-CEM leukemia = test system: CCRF-CEM leukemia
MOLT-4 leukemia = test system: MOLT-4 leukemia

CN(C)c1ccc(N)cc1
GI50 (MCF7 breast): 2.83 µM
TGI (MCF7 breast): 9.12 µM
GI50 (MDA-MB-435): 3.4 µM
TGI (MDA-MB-435): 15.2 µM
GI50 (COLO 205 colon): 1.97 µM
TGI (COLO 205 colon): 4.54 µM
GI50 (SK-MEL-2 melanoma): 2.55 µM
TGI (SK-MEL-2 melanoma): 7.84 µM
GI50 (NCI/ADR-RES ovarian): 12.6 µM
TGI (NCI/ADR-RES ovarian): 48 µM
GI50 (HT29 colon): 3.04 µM
TGI (HT29 colon): 10.8 µM
GI50 (SN12C renal): 4.35 µM
TGI (SN12C renal): 33.9 µM
GI50 (SK-MEL-5 melanoma): 3.91 µM
TGI (SK-MEL-5 melanoma): 13.7 µM
GI50 (T-47D breast): 3.25 µM
TGI (T-47D breast): 9.7 µM
GI50 (ACHN renal): 4.38 µM
TGI (ACHN renal): 18 µM
GI50 (M14 melanoma): 4.66 µM
TGI (M14 melanoma): 16.3 µM
GI50 (LOX IMVI melanoma): 3.94 µM
TGI (LOX IMVI melanoma): 14.7 µM
GI50 (UACC-257 melanoma): 2.69 µM
TGI (UACC-257 melanoma): 7.28 µM
GI50 (A498 renal): 7.02 µM
TGI (A498 renal): 50.7 µM
GI50 (HOP-92 NSCLC): 2.3 µM
TGI (HOP-92 NSCLC): 7.91 µM
GI50 (SK-MEL-28 melanoma): 7.81 µM
TGI (SK-MEL-28 melanoma): 22.3 µM
GI50 (SW-620 colon): 4.15 µM
TGI (SW-620 colon): 17.2 µM
GI50 (UACC-62 melanoma): 4 µM
TGI (UACC-62 melanoma): 16.8 µM
GI50 (PC-3 prostate): 3.53 µM
TGI (PC-3 prostate): 21.8 µM
GI50 (NCI-H23 lung): 3.14 µM
TGI (NCI-H23 lung): 14.1 µM
GI50 (SNB-19 CNS): 4.35 µM
TGI (SNB-19 CNS): > 100 µM
GI50 (SNB-75 CNS): 3.79 µM
TGI (SNB-75 CNS): 17.3 µM
GI50 (SF-295 CNS): 2.37 µM
TGI (SF-295 CNS): 6.48 µM
GI50 (A549 NSCLC): 4.58 µM
TGI (A549 NSCLC): 52.6 µM
GI50 (EKVX NSCLC): 3.32 µM
TGI (EKVX NSCLC): 26.4 µM
GI50 (OVCAR-3 ovarian): 2.14 µM
TGI (OVCAR-3 ovarian): 6.12 µM
GI50 (HCC-2998 colon): 4.44 µM
TGI (HCC-2998 colon): 21.2 µM
GI50 (BT-549 breast): 4.7 µM
TGI (BT-549 breast): 16.1 µM
GI50 (MALME-3M melanoma): 3.17 µM
TGI (MALME-3M melanoma): 13.8 µM
GI50 (786-0 renal): 8.38 µM
TGI (786-0 renal): 97.5 µM
GI50 (DU-145 prostate): 6.05 µM
TGI (DU-145 prostate): 48.1 µM
GI50 (OVCAR-8 ovarian): 3.24 µM
TGI (OVCAR-8 ovarian): 19.7 µM
GI50 (RXF 393 renal): 10.4 µM
TGI (RXF 393 renal): 26 µM
GI50 (CAKI-1 renal): 5.6 µM
TGI (CAKI-1 renal): 30.9 µM
GI50 (HCT-15 colon): 6.66 µM
TGI (HCT-15 colon): 38.5 µM
GI50 (TK-10 renal): 3.05 µM
TGI (TK-10 renal): 18.5 µM
GI50 (UO-31 renal): 3.97 µM
TGI (UO-31 renal): 16.3 µM
GI50 (NCI-H522 lung): 1.94 µM
TGI (NCI-H522 lung): 7.84 µM
GI50 (SF-268 CNS): 6.96 µM
TGI (SF-268 CNS): 32.7 µM
GI50 (NCI-H226 lung): 12.4 µM
TGI (NCI-H226 lung): 48 µM
GI50 (IGROV1 ovarian): 4.04 µM
TGI (IGROV1 ovarian): 23.8 µM
GI50 (SF-539 CNS): 10.3 µM
TGI (SF-539 CNS): 25.5 µM
GI50 (HCT-116 colon): 2.67 µM
TGI (HCT-116 colon): 8.44 µM
GI50 (KM12 colon): 3.25 µM
TGI (KM12 colon): 12.2 µM
GI50 (NCI-H460 lung): 3.09 µM
TGI (NCI-H460 lung): 13 µM
GI50 (MDA-MB-231 breast): 3.99 µM
TGI (MDA-MB-231 breast): 55.2 µM
GI50 (RPMI-8226 leukemia): 2.71 µM
TGI (RPMI-8226 leukemia): 9.1 µM
GI50 (SK-OV-3 ovarian): 13.1 µM
TGI (SK-OV-3 ovarian): 58 µM
GI50 (OVCAR-5 ovarian): 13.5 µM
TGI (OVCAR-5 ovarian): 42.6 µM
GI50 (U251 CNS): 3.36 µM
TGI (U251 CNS): 13.2 µM
GI50 (OVCAR-4 ovarian): 1.74 µM
TGI (OVCAR-4 ovarian): 3.45 µM

O=C1Cc2c([nH]c3ccc(Br)cc23)-c2cc(Br)ccc2N1
TGI (MCF7 breast): > 100 µM
TGI (K-562 leukemia): > 100 µM
TGI (MDA-MB-435): > 100 µM
TGI (COLO 205 colon): > 100 µM
TGI (SK-MEL-2 melanoma): > 100 µM
TGI (NCI/ADR-RES ovarian): > 100 µM
TGI (SK-MEL-5 melanoma): > 100 µM
TGI (T-47D breast): > 100 µM
TGI (ACHN renal): > 100 µM
TGI (M14 melanoma): > 100 µM
TGI (LOX IMVI melanoma): > 100 µM
TGI (UACC-257 melanoma): > 100 µM
TGI (A498 renal): > 100 µM
TGI (HOP-92 NSCLC): > 100 µM
TGI (SK-MEL-28 melanoma): > 100 µM
TGI (SW-620 colon): > 100 µM
TGI (UACC-62 melanoma): > 100 µM
TGI (PC-3 prostate): > 100 µM
TGI (NCI-H23 lung): > 100 µM
TGI (SNB-19 CNS): > 100 µM
TGI (SF-295 CNS): > 100 µM
TGI (A549 NSCLC): > 100 µM
TGI (EKVX NSCLC): > 100 µM
TGI (CCRF-CEM leukemia): > 100 µM
TGI (HCC-2998 colon): > 100 µM
TGI (BT-549 breast): > 100 µM
TGI (MOLT-4 leukemia): > 100 µM
TGI (786-0 renal): > 100 µM
TGI (DU-145 prostate): > 100 µM
TGI (OVCAR-8 ovarian): > 100 µM
TGI (CAKI-1 renal): > 100 µM
TGI (HCT-15 colon): > 100 µM
TGI (TK-10 renal): > 100 µM
TGI (UO-31 renal): > 100 µM
TGI (SF-268 CNS): > 100 µM
TGI (NCI-H226 lung): > 100 µM
TGI (SF-539 CNS): > 100 µM
TGI (KM12 colon): > 100 µM
TGI (NCI-H460 lung): > 100 µM
TGI (MDA-MB-231 breast): > 100 µM
TGI (RPMI-8226 leukemia): > 100 µM
TGI (SK-OV-3 ovarian): > 100 µM
TGI (OVCAR-5 ovarian): > 100 µM
TGI (U251 CNS): > 100 µM
TGI (OVCAR-4 ovarian): > 100 µM
